Patent US20260325685A1, “Radiopharmaceutical Compositions Targeting Carbonic Anhydrase IX and Uses Thereof” (RayzeBio, Inc., priority 2023, published 2026)
Read-outs that look alike come from different tables or passages of the source.

Legend:
human CA-IX = molecular target: T1, human CA-IX (Homo sapiens, UniProt Q16790); experiment: Surface Plasmon Resonance (SPR) binding kinetics to recombinant human CA-IX (Biacore 8K, single-cycle kinetics, 1:1 binding model)
T1 construct: purchased Acro CA9-H82E3
Experimental: (§1) G1. Surface Plasmon Resonance Assay Conditions for hCA-IX and hCA-XII
(§2) Surface Plasmon Resonance (SPR) experiments were conducted on a Biacore 8K instrument (Cytiva, Marlborough, MA) to determine the binding kinetics of the compound to recombinant human CA-IX (Acro, CA9-H82E3) and CA-XII (Creative BioMart, CA12-261H) proteins. The ligands were diluted to 10 μg/mL in PBS-P+ buffer (20 mM phosphate buffer, pH 7.4, with 2.7 mM KCl, 137 mM NaCl, and 0.05% Tween 20) and captured on Series S Streptavidin Sensor Chips (Cytiva, 29699621) to 1200-1800 response units (RU) using a flow rate of 5 μL/min and injection times of 180 seconds for human CA-IX and 75 seconds for human CA-XII. Analyte binding was evaluated using a single-cycle kinetics method over 9 analyte concentrations (100-0.39 nM) in PBS-P+ buffer with 1% DMSO using a 50 μL/min. flow rate, 120 second association time, and 1200 second dissociation time. The flow cell temperature was set to 25° C. Analyte binding curves were fit to a 1:1 binding kinetic model in Biacore Insight Evaluation software (version 4.0.8.20368) following reference flow cell subtraction and DMSO correction to derive the association and dissociation binding constants.

human CA-XII = molecular target: T2, human CA-XII (Homo sapiens, UniProt O43570); experiment: Surface Plasmon Resonance (SPR) binding kinetics to recombinant human CA-XII (Biacore 8K, single-cycle kinetics, 1:1 binding model)
T2 construct: purchased Creative BioMart CA12-261H
Experimental: as §1, §2

[1] = Chelated Metal: Lu-175; SPR, 25° C., pH 7.4; read-out: CAIX KD
[2] = Chelated Metal: Lu-175, 25° C., pH 7.4, read-out: CAXII KD
[3] = read-out: CAIX KD; Chelated Metal: Lu-175; SPR, 25° C., pH 7.4
[4] = read-out: CAXII KD, Chelated Metal: Lu-175, 25° C., pH 7.4

T2 sequence (O43570 25-354): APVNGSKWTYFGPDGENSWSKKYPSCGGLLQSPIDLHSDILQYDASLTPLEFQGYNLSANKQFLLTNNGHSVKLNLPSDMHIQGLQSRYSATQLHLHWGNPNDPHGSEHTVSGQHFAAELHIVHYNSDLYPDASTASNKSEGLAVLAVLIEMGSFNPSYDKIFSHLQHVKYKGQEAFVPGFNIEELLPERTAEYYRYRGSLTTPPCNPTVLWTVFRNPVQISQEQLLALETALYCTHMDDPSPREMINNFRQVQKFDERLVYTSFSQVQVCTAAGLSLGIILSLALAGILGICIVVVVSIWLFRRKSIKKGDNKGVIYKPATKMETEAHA

CC(CCC(=O)N[C@@H](CC(=O)N[C@@H](CC(=O)N1CCN(C(=O)[C@H](CCC(=O)NCCOCCOCCOCCOCCOCCOCCOCCOCCC(=O)N[C@@H](CCCCNC(=O)CCCc2ccc(Cl)cc2)C(=O)O)NC(=O)CN2CCN(CC(=O)O)CCN(CC(=O)O)CCN(CC(=O)O)CC2)C[C@H]1C(=O)NCCn1cc(C23CC(C(=O)Nc4nnc(S(N)(=O)=O)s4)(C2)C3)nn1)C(=O)O)C(=O)O)(c1ccc(O)cc1)c1ccc(O)cc1.[Lu+3] (racemic) [Compound 125.1] was tested, and the Kd (human CA-IX; [1]) was 2.5 to 10 nM and the Kd (human CA-XII; [2]) was greater than 10 nM.
For CC(CCC(=O)N[C@@H](CC(=O)N[C@@H](CC(=O)N1CCN(C(=O)[C@H](CCC(=O)NCCOCCOCCOCCOCCOCCOCCOCCOCCC(=O)N[C@@H](CCCCNC(=O)CCCc2ccc(I)cc2)C(=O)O)NC(=O)CN2CCN(CC(=O)O)CCN(CC(=O)O)CCN(CC(=O)O)CC2)C[C@H]1C(=O)NCCn1cc(C23CC(C(=O)Nc4nnc(S(N)(=O)=O)s4)(C2)C3)nn1)C(=O)O)C(=O)O)(c1ccc(O)cc1)c1ccc(O)cc1.[Lu+3] (racemic) [Compound 125], the Kd (human CA-IX; [3]) was 1 to 2.5 nM and the Kd (human CA-XII; [4]) was greater than 10 nM.
Compound CC(CCCC(=O)N1CCC(C(N)=O)(C(=O)NCC(=O)NC2(C(=O)NCCn3cc(C45CC(C(=O)Nc6nnc(S(N)(=O)=O)s6)(C4)C5)nn3)CCN(C(=O)CN3C[C@@H]4CN(C(=O)CN5CCN(CC(=O)O)CCN(CC(=O)O)CCN(CC(=O)O)CC5)C[C@@H]4C3)CC2)CC1)(c1ccc(O)cc1)c1ccc(O)cc1.[Lu+3] (racemic) [Compound 129.6] has a Kd (human CA-IX; [1]) of less than 1 nM and a Kd (human CA-XII; [2]) greater than 10 nM.
Work on CC(CCCC(=O)N1CCC(C(=O)O)(C(=O)NCC(=O)NC2(C(=O)NCCn3cc(C45CC(C(=O)Nc6nnc(S(N)(=O)=O)s6)(C4)C5)nn3)CCN(C(=O)CN3CCN(CC(=O)O)CCN(CC(=O)O)CCN(CC(=O)O)CC3)CC2)CC1)(c1ccc(O)cc1)c1ccc(O)cc1.[Lu+3] (single isomer, unassigned) [Compound 117.1] yielded a Kd (human CA-IX; [1]) of less than 1 nM and a Kd (human CA-XII; [2]) greater than 10 nM.
For CC(CCCC(=O)N1CCC(C(=O)O)(C(=O)NCC(=O)NC2(C(=O)NCCn3cc(C45CC(C(=O)Nc6nnc(S(N)(=O)=O)s6)(C4)C5)nn3)CCN(C(=O)CN3CCN(CC(=O)O)CCN(CC(=O)O)CCN(CC(=O)O)CC3)CC2)CC1)(c1ccc(O)cc1)c1ccc(O)cc1.[Lu+3] (single isomer, unassigned) [Compound 117.4], the Kd (human CA-IX; [1]) was 1 to 2.5 nM and the Kd (human CA-XII; [2]) was greater than 10 nM.
Compound CC(CCC(=O)N[C@@H](CC(=O)N[C@@H](CC(=O)N[C@@H](CCCCn1cc(C23CCC(C(=O)Nc4nnc(S(N)(=O)=O)s4)(CC2)C3)nn1)C(=O)NCCOCCOCCNC(=O)CN1CCN(CC(=O)O)CCN(CC(=O)O)CCN(CC(=O)O)CC1)C(=O)O)C(=O)O)(c1ccc(O)cc1)c1ccc(O)cc1.[Lu+3] [Compound 100.1] has a Kd (human CA-IX; [1]) of less than 1 nM and a Kd (human CA-XII; [2]) of 1 to 2.5 nM.
Compound CC(CCC(=O)N[C@@H](CC(=O)N[C@@H](CC(=O)N[C@@H](CCCn1cc(C23CC(C(=O)Nc4nnc(S(N)(=O)=O)s4)(C2)C3)nn1)C(=O)NCCOCCOCCNC(=O)CN1CCN(CC(=O)O)CCN(CC(=O)O)CCN(CC(=O)O)CC1)C(=O)O)C(=O)O)(c1ccc(O)cc1)c1ccc(O)cc1.[Lu+3] [Compound 100.2] has a Kd (human CA-IX; [1]) of 1 to 2.5 nM and a Kd (human CA-XII; [2]) greater than 10 nM.
Compound CC(CCC(=O)N[C@@H](CC(=O)N[C@@H](CC(=O)N[C@@H](CCCn1cc(C2CCC(C(=O)Nc3nnc(S(N)(=O)=O)s3)CC2)nn1)C(=O)NCCOCCOCCNC(=O)CN1CCN(CC(=O)O)CCN(CC(=O)O)CCN(CC(=O)O)CC1)C(=O)O)C(=O)O)(c1ccc(O)cc1)c1ccc(O)cc1.[Lu+3] (stereo partly shown) [Compound 100.3] has a Kd (human CA-IX; [1]) of less than 1 nM and a Kd (human CA-XII; [2]) of 2.5 to 10 nM.
With CC(CCC(=O)N[C@@H](CC(=O)N[C@@H](CC(=O)N[C@@H](CCCCn1cc([C@H]2CC[C@H](C(=O)Nc3nnc(S(N)(=O)=O)s3)CC2)nn1)C(=O)NCCOCCOCCNC(=O)CN1CCN(CC(=O)O)CCN(CC(=O)O)CCN(CC(=O)O)CC1)C(=O)O)C(=O)O)(c1ccc(O)cc1)c1ccc(O)cc1.[Lu+3] [Compound 100.4] the Kd (human CA-IX; [1]) was less than 1 nM and the Kd (human CA-XII; [2]) was 2.5 to 10 nM.
CC(CCC(=O)N[C@@H](CC(=O)N[C@@H](CC(=O)N[C@@H](CCCn1cc(C23CCC(C(=O)Nc4nnc(S(N)(=O)=O)s4)(CC2)C3)nn1)C(=O)NCCOCCOCCNC(=O)CN1CCN(CC(=O)O)CCN(CC(=O)O)CCN(CC(=O)O)CC1)C(=O)O)C(=O)O)(c1ccc(O)cc1)c1ccc(O)cc1.[Lu+3] [Compound 100.5] showed a Kd (human CA-IX; [1]) of less than 1 nM and a Kd (human CA-XII; [2]) of less than 1 nM.
For CC(CCC(=O)N[C@@H](CC(=O)N[C@@H](CC(=O)N[C@@H](CCCCn1cc(C23CCC(C(=O)Nc4nnc(S(N)(=O)=O)s4)(CC2)CC3)nn1)C(=O)NCCOCCOCCNC(=O)CN1CCN(CC(=O)O)CCN(CC(=O)O)CCN(CC(=O)O)CC1)C(=O)O)C(=O)O)(c1ccc(O)cc1)c1ccc(O)cc1.[Lu+3] [Compound 100.6], the Kd (human CA-IX; [1]) was less than 1 nM and the Kd (human CA-XII; [2]) was 1 to 2.5 nM.
CC(CCC(=O)N[C@@H](CC(=O)N[C@@H](CC(=O)N[C@@H](CCCn1cc(C23CCC(C(=O)Nc4nnc(S(N)(=O)=O)s4)(CC2)CC3)nn1)C(=O)NCCOCCOCCNC(=O)CN1CCN(CC(=O)O)CCN(CC(=O)O)CCN(CC(=O)O)CC1)C(=O)O)C(=O)O)(c1ccc(O)cc1)c1ccc(O)cc1.[Lu+3] [Compound 100.7] was tested, and the Kd (human CA-IX; [1]) was less than 1 nM and the Kd (human CA-XII; [2]) was 1 to 2.5 nM.
In the case of CC(CCC(=O)N[C@@H](CC(=O)N[C@@H](CC(=O)N[C@@H](CCCCn1cc(C23CCC(C(=O)Nc4nnc(S(N)(=O)=O)s4)(CC2)C3)nn1)C(=O)N1CC2(CN(C(=O)CN3CCN(CC(=O)O)CCN(CC(=O)O)CCN(CC(=O)O)CC3)C2)C1)C(=O)O)C(=O)O)(c1ccc(O)cc1)c1ccc(O)cc1.[Lu+3] [Compound 100.10], the Kd (human CA-IX; [1]) is reported as less than 1 nM and the Kd (human CA-XII; [2]) is reported as less than 1 nM.
With CC(CCC(=O)N[C@@H](CC(=O)N[C@@H](CC(=O)N[C@@H](CCCCn1cc(C23CCC(C(=O)Nc4nnc(S(N)(=O)=O)s4)(CC2)C3)nn1)C(=O)N1CC(NC(=O)CN2CCN(CC(=O)O)CCN(CC(=O)O)CCN(CC(=O)O)CC2)C1)C(=O)O)C(=O)O)(c1ccc(O)cc1)c1ccc(O)cc1.[Lu+3] [Compound 100.11] the Kd (human CA-IX; [1]) was less than 1 nM and the Kd (human CA-XII; [2]) was less than 1 nM.
With CC(CCC(=O)N[C@@H](CC(=O)N[C@@H](CC(=O)N[C@@H](CCCCn1cc(C23CCC(C(=O)Nc4nnc(S(N)(=O)=O)s4)(CC2)C3)nn1)C(=O)N1CCC(NC(=O)CN2CCN(CC(=O)O)CCN(CC(=O)O)CCN(CC(=O)O)CC2)CC1)C(=O)O)C(=O)O)(c1ccc(O)cc1)c1ccc(O)cc1.[Lu+3] [Compound 100.12] the Kd (human CA-IX; [1]) was less than 1 nM and the Kd (human CA-XII; [2]) was less than 1 nM.
CC(CCC(=O)N[C@@H](CC(=O)N[C@@H](CC(=O)N[C@@H](CCCCn1cc(C23CCC(C(=O)Nc4nnc(S(N)(=O)=O)s4)(CC2)C3)nn1)C(=O)N1CCN(C(=O)CN2CCN(CC(=O)O)CCN(CC(=O)O)CCN(CC(=O)O)CC2)CC1)C(=O)O)C(=O)O)(c1ccc(O)cc1)c1ccc(O)cc1.[Lu+3] [Compound 100.13] showed a Kd (human CA-IX; [1]) of less than 1 nM and a Kd (human CA-XII; [2]) of less than 1 nM.
CC(CCC(=O)N[C@@H](CC(=O)N[C@@H](CC(=O)N[C@@H](CCCCn1cc(C23CCC(C(=O)Nc4nnc(S(N)(=O)=O)s4)(CC2)C3)nn1)C(=O)NCCOCCNC(=O)CCC(C(=O)O)N1CCN(CC(=O)O)CCN(CC(=O)O)CCN(CC(=O)O)CC1)C(=O)O)C(=O)O)(c1ccc(O)cc1)c1ccc(O)cc1.[Lu+3] (stereo partly shown) [Compound 100.15] was tested, and the Kd (human CA-IX; [1]) was less than 1 nM and the Kd (human CA-XII; [2]) was less than 1 nM.
CC(CC(=O)N[C@@H](CC(=O)N[C@@H](CC(=O)N[C@@H](CCCCn1cc(C23CCC(C(=O)Nc4nnc(S(N)(=O)=O)s4)(CC2)C3)nn1)C(=O)NCCOCCOCCNC(=O)CN1CCN(CC(=O)O)CCN(CC(=O)O)CCN(CC(=O)O)CC1)C(=O)O)C(=O)O)(c1ccc(O)cc1)c1ccc(O)cc1.[Lu+3] [Compound 100.17] was tested, and the Kd (human CA-IX; [1]) was less than 1 nM and the Kd (human CA-XII; [2]) was less than 1 nM.
CC(CCC(=O)N[C@@H](CC(=O)N[C@@H](CC(=O)N[C@@H](CCCCn1cc(C23CCC(C(=O)Nc4nnc(S(N)(=O)=O)s4)(CC2)C3)nn1)C(=O)NCC1(C(=O)O)CCN(C(=O)CN2CCN(CC(=O)O)CCN(CC(=O)O)CCN(CC(=O)O)CC2)CC1)C(=O)O)C(=O)O)(c1ccc(O)cc1)c1ccc(O)cc1.[Lu+3] [Compound 100.18] showed a Kd (human CA-IX; [1]) of less than 1 nM and a Kd (human CA-XII; [2]) of less than 1 nM.
In the case of CC(CCC(=O)N[C@@H](CC(=O)N[C@@H](CC(=O)N[C@@H](CCCCn1cc(C23CCC(C(=O)Nc4nnc(S(N)(=O)=O)s4)(CC2)C3)nn1)C(=O)NCC1(C(=O)O)CN(C(=O)CN2CCN(CC(=O)O)CCN(CC(=O)O)CCN(CC(=O)O)CC2)C1)C(=O)O)C(=O)O)(c1ccc(O)cc1)c1ccc(O)cc1.[Lu+3] [Compound 100.19], the Kd (human CA-IX; [1]) is reported as less than 1 nM and the Kd (human CA-XII; [2]) is reported as less than 1 nM.
Work on CC(CCC(=O)N[C@@H](CC(=O)N[C@@H](CC(=O)N[C@@H](CCCCn1cc(C23CC(C(=O)Nc4nnc(S(N)(=O)=O)s4)(C2)C3)nn1)C(=O)NCCOCCOCCNC(=O)CN1CCN(CC(=O)O)CCN(CC(=O)O)CCN(CC(=O)O)CC1)C(=O)O)C(=O)O)(c1ccc(O)cc1)c1ccc(O)cc1.[Lu+3] [Compound 100] yielded a Kd (human CA-IX; [3]) of 1 to 2.5 nM and a Kd (human CA-XII; [4]) greater than 10 nM.
With Cc1cc(-c2cn(CCNC(=O)[C@@H]3CN(C(=O)CN4CCN(CC(=O)O)CCN(CC(=O)O)CCN(CC(=O)O)CC4)CCN3C(=O)C[C@H](NC(=O)C[C@H](NC(=O)CCC(C)(c3ccc(O)cc3)c3ccc(O)cc3)C(=O)O)C(=O)O)nn2)ccc1C(=O)Nc1nnc(S(N)(=O)=O)s1.[Lu+3] [Compound 107.40] the Kd (human CA-XII; [2]) was less than 1 nM.
